Entries after “also recorded” stand apart in the source; their conditions may differ. Marks after values point to notes of the source that are not given here.

Holding throughout (assay type): physicochemical
The nature of series [1]: Production of concentrated Yucca shidegera saponin emulsions in water (content reached). The following applies: for Ratio of saponin to emulsified molecule (by mass) / Content (by mass) of molecule in emulsion: Yucca shidegera saponin emulsion in water; for Content (by mass) of molecule in emulsion: mass fraction. Here is the method:
(§1) The concentrated emulsions readily re-disperse upon dilution in water to working concentrations of interest. The final concentration of saponin with respect to the organic molecule is easily obtainable at 1:50 or 1:100 w/w, or even less. The shelf life of the concentrated emulsions, either at room temperature (about 25° C.) or at refrigerator temperature (about 4° C.) is at least 1 year, although separation of an emulsion, once stably formed, has not been observed.
mulsions of some aqueous-recalcitrant compounds were prepared in water using Yucca shidegera extracts containing about 12-14% saponin, as an emulsifying agent. The saponin preparations were obtained from Danco Natural Products, Pine Valley, Calif., and are sold under the trade names Pure Yucca (about 7-14% saponin and Yucca Ultra (about 10-11% saponin). These preparations had been filtered by the supplier to remove any fibers which could interfere with the emulsification process. The components were combined as follows, using D-limonene as an example.
(§2) D-limonene (B. F. Goodrich/Kalama Chemicals, Kalama, Wash.) in the amount of 50 grams was added directly to a clean glass container. To this, 1.6 grams of yucca saponin was added. The glass container was covered tightly and agitated vigorously. A poor, partially opaque solution resulted. […] 18.4 grams water was then added such that the total weight of the three components was 70 grams. The mixture was agitated again vigorously in a capped container. A viscous, white and truly opaque emulsion resulted. […] To this, another 30 grams limonene was added while mixing to form 100 g final emulsion. The final concentration of D-limonene in the emulsion was 80% by weight. An additional 10 grams of D-limonene can be to bring the final concentration to 90% by weight.
Likewise, other organic compounds can be emulsified by combining about 50 grams of the organic compound with the fraction of saponin indicated in Table 1 and water in a sufficient amount to produce an emulsion upon mixing of the three components. Following formation of the emulsion, the amount of organic compound can be increased as desired.

The nature of series [2]: Stability of the saponin emulsions (stable emulsion formed, phase separation, recrystallizing, shelf life). As to conditions: for formation of a stable emulsion: with yucca saponin and water. As to the method:
as §2, with “vigorously.” for “vigorously. A poor, partially opaque solution resulted.”, “container.” for “container. A viscous, white and truly opaque emulsion resulted.”
(§3) It is worth noting that vanillin is a solid at room termperature. The vanillin emulsion was prepared by first heating vanillin to at least 81° C. in order to melt it, then adding the other components.

Series [3] can be described thus: Re-dilution of the concentrated emulsions in water. As to conditions: concentrated emulsion diluted in water. As to the method: as §1
Furthermore, no two of the three components were able to form an emulsion on their own under the stated conditions. Emulsions were only possible with all three components.
as §3

As for cedryl acetate, in series [1], the “Ratio of saponin to emulsified molecule (by mass)” value (shortened to “Ratio of saponin”) is listed as 1/196 and the “Content (by mass) of molecule in emulsion” value (from here on “Content (by mass)”) is on record as “.794”.

Consider `O=CC=Cc1ccccc1` [cinnamaldehyde], for which, in series [1], the “Ratio of saponin” value was 1/50 and the “Content (by mass)” value was “.899”.

Take `C=C(C)[C@H]1CC=C(C)CC1` [d-limonene, D-limonene]: in series [1], the “Ratio of saponin” value was 1/78 and the “Content (by mass)” value is reported as “.909”. Moreover, in series [1] (stable saponin emulsion in water, two step mixing), the “concentration of organic compound in the emulsion” value amounted to 80 % by weight. The “phase separation of emulsion” value in series [2] (ambient temperature, 50:12:1 D-limonene:water:saponin) is “will not undergo phase separation for up to two weeks”. For the same compound, the “formation of a stable emulsion” value in series [2] is on record as “stable emulsion”. Further, the “dilution of emulsion in water” value in series [3] was “readily diluted up to eighty-fold”.

As for `C=CCc1ccc(O)c(OC)c1` [eugenol], the “formation of a stable emulsion” value in series [2] is given as “did not form stable emulsions; also recorded: stable emulsions were not obtained”.

On to `O=C(OCc1ccccc1)c1ccccc1` [benzyl benzoate], for which, in series [1], the “Ratio of saponin” value is recorded as 1/55 and the “Content (by mass)” value is listed as “.534”.

Regarding `COc1cc(/C=C/C=O)ccc1O` [coniferaldehyde], the “formation of a stable emulsion” value in series [2] is “did not form stable emulsions; also recorded: stable emulsions were not obtained”.

As to `COc1cc(C=O)ccc1O` [vanillin], in series [1], the “Ratio of saponin” value is recorded as 1/34 and the “Content (by mass)” value was “.566”. Also, the “stability of emulsion without recrystallizing” value in series [2] (room temperature, prepared from melt (>81° C.)) is “stable at room temperature without recrystallizing”.

As to `CC/C=C\CC1C(=O)CCC1CC(=O)OC` (stereo not drawn) [methyl jasmonate], the “formation of a stable emulsion” value in series [2] is reported as “did not form stable emulsions”.

As to `C=C(C)C1CC=C(C)CC1` (single isomer, unassigned; (+)) [(+) limonene], in series [1], the “Ratio of saponin” value is 1/18* and the “Content (by mass)” value is “.690”.

Regarding `COc1cc(/C=C/C=O)cc(OC)c1O` [sinapaldehyde], the “formation of a stable emulsion” value in series [2] is “did not form stable emulsions; also recorded: stable emulsions were not obtained”.

Values taken from patent publication US20030086952A1, “Highhly concentrated emulsions of organic compounds and methos of use” (priority 2001, published 2003).
